Earlier results, collected in publication PMC3635145 (Journal of medicinal chemistry, 2013).

Target: T1, TbrPDEB1 (Trypanosoma brucei, UniProt Q8WQX9)
T1 sequence (Q8WQX9 1-930): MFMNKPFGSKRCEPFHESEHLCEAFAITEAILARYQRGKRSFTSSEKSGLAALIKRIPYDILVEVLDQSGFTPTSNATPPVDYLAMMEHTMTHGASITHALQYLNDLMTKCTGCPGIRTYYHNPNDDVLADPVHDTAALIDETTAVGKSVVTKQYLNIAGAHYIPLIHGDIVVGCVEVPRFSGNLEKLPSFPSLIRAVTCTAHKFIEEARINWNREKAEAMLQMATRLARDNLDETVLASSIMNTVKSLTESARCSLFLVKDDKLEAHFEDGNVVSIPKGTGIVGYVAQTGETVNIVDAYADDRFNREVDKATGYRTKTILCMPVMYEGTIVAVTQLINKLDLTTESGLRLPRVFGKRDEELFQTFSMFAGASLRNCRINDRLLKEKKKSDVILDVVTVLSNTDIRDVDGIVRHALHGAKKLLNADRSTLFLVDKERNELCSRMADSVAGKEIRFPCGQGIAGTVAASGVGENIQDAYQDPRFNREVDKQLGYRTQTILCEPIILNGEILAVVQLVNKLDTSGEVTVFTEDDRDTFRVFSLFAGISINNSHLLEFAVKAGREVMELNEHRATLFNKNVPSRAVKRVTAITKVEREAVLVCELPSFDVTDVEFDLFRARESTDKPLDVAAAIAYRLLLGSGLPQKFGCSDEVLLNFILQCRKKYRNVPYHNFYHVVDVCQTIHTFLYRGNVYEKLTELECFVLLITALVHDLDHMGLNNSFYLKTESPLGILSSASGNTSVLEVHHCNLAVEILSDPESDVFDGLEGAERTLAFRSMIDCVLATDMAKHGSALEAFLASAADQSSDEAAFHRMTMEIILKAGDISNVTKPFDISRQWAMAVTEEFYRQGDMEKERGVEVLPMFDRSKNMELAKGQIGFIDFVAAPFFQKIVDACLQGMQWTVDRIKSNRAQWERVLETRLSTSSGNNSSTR

Structure (SMILES): COc1ccc(C(=O)CC(C)C)cc1OCCCCO [compound 5, 1-(3-(4-hydroxybutoxy)-4-methoxyphenyl)-3-methylbutan-1-one]
- TbrPDEB1 inhibition (in words): appears to inhibit TbrPDEB1 to some extent
